Laboratory results published in patent US20110054039A1, “USE OF ALKYL SULFATES OR SULFONATES AGAINST PROPIONIBACTERIUM ACNES” (priority 2008, published 2011).
≈ marks a conversion by molar mass, not a printed value. Where a name gives a salt, the structure may show the parent alone. Read-outs that look alike come from different tables or passages of the source.

Experiments:
Assay type in all cases: cell-based
[1] = tested on: Propionibacterium acnes NCTC 737; assay: Minimum Inhibitory Concentration (MIC) assay, broth microdilution; details: P. acnes NCTC 737, Wilkins-Chalgren broth pH 6.0, anaerobic, 37° C., 72 hours
Method: (§1) The test micro-organism represented the cutaneous propionibacteria. […] The propionibacteria are clinically significant due to their involvement in acne. This is a very common, complex and multi-factorial skin disease in which P. acnes and other Propionibacterium spp. […] They are also opportunistic pathogens in compromised hosts.
(§2) The propionibacteria were cultured and maintained on Wilkins-Chalgren Anaerobe Medium (agar and broth) at pH 6.0; all cultures were incubated anaerobically at 37° C. for 72 hours.
This is a standard international method for quantitatively assessing the antimicrobial activity of a compound in a liquid medium. […] The culture media were as described above.
The wells were inoculated with a liquid suspension of freshly grown micro-organism and incubated under the conditions described above. After incubation, the microtitre plate was examined visually (with the aid of a light box) for cloudiness in each well, which would indicate microbial growth. The MIC value was recorded as the lowest concentration of test compound required to inhibit microbial growth, ie the lowest concentration for which the liquid in the well remained clear.
The assays included both negative (culture medium with no micro-organisms) and positive (culture medium plus diluting solvent plus micro-organism) controls.
(§3) MIC, MBC and DDA assays, as described above, were carried out using as the test compound sodium n-tetradecyl sulphate (STS, ex Sigma Aldrich, UK), dissolved in distilled water. All the experiments were conducted in triplicate. For the DDA experiments, 200 μg of the test compound was loaded onto each disc.
(§4) The MIC/MBC experiments were conducted in triplicate, with the exception of those for SDS and ADS which were conducted in duplicate. The DDAs were performed either in triplicate, in which case standard deviations are quoted in parentheses, or as a single replicate. For the DDA experiments, 200 μg of the test compound was loaded onto each disc.

[2] = tested on: Propionibacterium acnes NCTC 737; assay: Minimum Biocidal (Bactericidal) Concentration (MBC) assay; details: P. acnes NCTC 737; for MBC: sub-culture on antibiotic-free agar after MIC assay
Method: as §1, §2
This assay, normally carried out after an MIC assay, determines the minimum concentration of a compound that is lethal to the micro-organism being tested.
These samples were then individually sub-cultured on antibiotic-free agar medium, under the incubation conditions described above. Following incubation they were examined visually for microbial growth.
as §3, §4

[3] = tested on: Propionibacterium acnes NCTC 737; assay: Supplemented Disc Diffusion Assay (agar with salt or lipid); details: Cutibacterium acnes, NCTC737, 72 h, P. acnes NCTC 737, 200 μg per disc
Method: as §1, §2
(§5) A sterile paper disc was impregnated with a sample of the test compound in a suitable solvent and 30 minutes allowed for the solvents to evaporate (where possible). The disc was then placed on an agar plate onto which the test micro-organism had been inoculated. The plate was then incubated under the conditions described above, following which it was examined visually for signs of microbial growth. […] The diameter of this zone of ‘inhibition’ was measured using a ProtoCOL™ automated zone sizer (Synbiosis, Cambridge, UK).
Performance under these conditions can provide a more reliable indication of activity on topical application.
as §3, §4

[4] = tested on: Propionibacterium acnes NCTC 737; assay: Disc Diffusion Assay (DDA); details: Cutibacterium acnes, NCTC737; P. acnes NCTC 737; 200 μg of test compound per disc; read-out: DDA (diameter of zone of inhibition)
Method: as §1, §2
This is an internationally recognised standard method for qualitatively assessing the antimicrobial activity of a compound.
as §5, §3, §4

[5] = Cutibacterium acnes, NCTC737, read-out: MIC
[6] = Cutibacterium acnes, NCTC737, read-out: MBC
[7] = agar supplemented with sodium chloride (100 mM), read-out: DDA + salt
[8] = agar supplemented with triolein at 1% v/v, read-out: DDA + lipid

`CCCCC(CC)CCC(CC(C)C)OS(=O)(=O)O` (stereo not shown) [7-ethyl-2-methyl-4-hendecanol sulphate sodium salt] gave an MIC [1, 5] of 31.2 µg/mL, an MBC [2, 6] of 62.5 µg/mL and an MIC/MBC ratio [2] of 0.5. For the same compound, the zone of inhibition at 200 µg/disc [3, 7] was 30.8 mm, the zone of inhibition at 200 µg/disc [3, 8] was 28.6 mm and the zone of inhibition at 200 µg/disc [4] was 28.5 mm.

Work on `CCCCCCCCCCCCOS(=O)(=O)O.N` [Ammonium dodecyl sulphate (ADS), ammonium dodecyl sulphate] yielded an MIC [1, 5] of 31.2 µg/mL, an MBC [2, 6] of 125 µg/mL and an MIC/MBC ratio [2] of 0.25. It also gave a zone of inhibition at 200 µg/disc [3, 7] of 24.1 mm, a zone of inhibition at 200 µg/disc [3, 8] of 20.3 mm and a zone of inhibition at 200 µg/disc [4] of 22.2 mm.

In the case of `CCCCCCCCCCCC(=O)O` [Laurie acid, reference compound], the MIC [1] is reported as 15.6 µg/mL (≈ 0.0779 mM) and the MBC [2] is reported as 31.25 µg/mL (≈ 0.156 mM).

Compound `CCCCCCCCCCCCOS(=O)(=O)[O-].[Li+]` [Lithium dodecyl sulphate, lithium dodecyl sulphate] has an MIC [1, 5] of 15.6 µg/mL, an MBC [2, 6] of 15.6 µg/mL and an MIC/MBC ratio [2] of 1. The zone of inhibition at 200 µg/disc [3, 7] was 30.5 mm, the zone of inhibition at 200 µg/disc [3, 8] was 30.2 mm and the zone of inhibition at 200 µg/disc [4] was 30 mm.

`CCCCS(=O)(=O)[O-].[Na+]` [Sodium 1-butane sulphonate, sodium 1-butane sulphonate] showed an MIC [1, 5] of over 250 µg/mL, an MBC [2, 6] of over 250 µg/mL and a zone of inhibition at 200 µg/disc [3, 7] of 0 mm. For the same compound, the zone of inhibition at 200 µg/disc [3, 8] was 0 mm and the zone of inhibition at 200 µg/disc [4] was 0 mm.

In the case of `CCCCCCCCCCS(=O)(=O)[O-].[Na+]` [Sodium 1-decane sulphonate, sodium 1-decane sulphonate], the MIC [1, 5] is reported as over 250 µg/mL, the MBC [2, 6] is reported as over 250 µg/mL and the zone of inhibition at 200 µg/disc [3, 7] is reported as 0 mm. The zone of inhibition at 200 µg/disc [3, 8] was 0 mm and the zone of inhibition at 200 µg/disc [4] was 0 mm.

`CCCCCCCCCCCCS(=O)(=O)[O-].[Na+]` [Sodium 1-dodecanesulphonate, sodium 1-dodecanesulphonate] showed an MIC [1, 5] of 125 µg/mL, an MBC [2, 6] of 250 µg/mL and an MIC/MBC ratio [2] of 0.5. It also gave a zone of inhibition at 200 µg/disc [3, 7] of 23 mm, a zone of inhibition at 200 µg/disc [3, 8] of 18.4 mm and a zone of inhibition at 200 µg/disc [4] of 18.1 mm.

Work on `CCCCCCCS(=O)(=O)[O-].[Na+]` [Sodium 1-heptane sulphonate, sodium 1-heptane sulphonate] yielded an MIC [1, 5] of over 250 µg/mL, an MBC [2, 6] of over 250 µg/mL and a zone of inhibition at 200 µg/disc [3, 7] of 0 mm. For the same compound, the zone of inhibition at 200 µg/disc [3, 8] was 10.6 mm and the zone of inhibition at 200 µg/disc [4] was 0 mm.

In the case of `CCCCCCCCCCCCCCCCS(=O)(=O)[O-].[Na+]` [Sodium 1-hexadecane sulphonate, sodium 1-hexadecane sulphonate], the MIC [1, 5] is reported as 1.95 µg/mL, the MBC [2, 6] is reported as 3.9 µg/mL and the MIC/MBC ratio [2] is reported as 0.5. For the same compound, the zone of inhibition at 200 µg/disc [3, 7] was 0 mm, the zone of inhibition at 200 µg/disc [3, 8] was 0 mm and the zone of inhibition at 200 µg/disc [4] was 0 mm.

For `CCCCCCCCCS(=O)(=O)[O-].[Na+]` [Sodium 1-nonanesulphonate, sodium 1-nonanesulphonate], the MIC [1, 5] was over 250 µg/mL, the MBC [2, 6] was over 250 µg/mL and the zone of inhibition at 200 µg/disc [3, 7] was 0 mm. The zone of inhibition at 200 µg/disc [3, 8] was 0 mm and the zone of inhibition at 200 µg/disc [4] was 0 mm.

In the case of `CCCCCCCCCCCCCCCCCCS(=O)(=O)O.[Na]` [Sodium 1-octadecane sulphonic acid, sodium 1-octadecane sulphonic acid], the MIC [1, 5] is reported as 125 µg/mL, the MBC [2, 6] is reported as over 250 µg/mL and the MIC/MBC ratio [2] is reported as under 0.5. It also gave a zone of inhibition at 200 µg/disc [3, 7] of 0 mm, a zone of inhibition at 200 µg/disc [3, 8] of 0 mm and a zone of inhibition at 200 µg/disc [4] of 0 mm.

In the case of `CCCCCCCCS(=O)(=O)O.[Na]` [Sodium 1-octane sulphonic acid, sodium 1-octane sulphonic acid], the MIC [1, 5] is reported as over 250 µg/mL, the MBC [2, 6] is reported as over 250 µg/mL and the zone of inhibition at 200 µg/disc [3, 7] is reported as 0 mm. For the same compound, the zone of inhibition at 200 µg/disc [3, 8] was 0 mm and the zone of inhibition at 200 µg/disc [4] was 0 mm.

`CCCCCCCCCCCCCC(=O)O` [myristic acid, reference compound] was tested, and the MIC [1, 5] was over 1000 µg/mL and the MBC [2, 6] was over 1000 µg/mL.

In the case of `CCCCCCCCCCCCCCCC(=O)O` [palmitic acid, reference compound], the MIC [1, 5] is reported as over 1000 µg/mL and the MBC [2, 6] is reported as over 1000 µg/mL.
